# Results reported in US20090286722A1 (priority 2005, published 2009).
# What was measured:
# dipeptidyl peptidase IV = dipeptidyl peptidase IV (Sus scrofa, UniProt P22411); assay: DPP IV degradation, % intact peptide by HPLC; format: in vitro ADME, porcine; settings: pig, purified porcine dipeptidyl peptidase IV (DPP IV), 37° C., pH 7.8
# Experimental: (§1) HPLC peak area data were used to calculate the percentage intact peptide remaining at the various time points during the incubation.
# [1] = molecular target: purified porcine dipeptidyl peptidase IV (Sus scrofa, UniProt P22411); assay: DPP IV degradation, % intact peptide by HPLC; format: in vitro ADME; settings: 37° C., pH 7.8
# Chain of purified porcine dipeptidyl peptidase IV (P22411 whole entry): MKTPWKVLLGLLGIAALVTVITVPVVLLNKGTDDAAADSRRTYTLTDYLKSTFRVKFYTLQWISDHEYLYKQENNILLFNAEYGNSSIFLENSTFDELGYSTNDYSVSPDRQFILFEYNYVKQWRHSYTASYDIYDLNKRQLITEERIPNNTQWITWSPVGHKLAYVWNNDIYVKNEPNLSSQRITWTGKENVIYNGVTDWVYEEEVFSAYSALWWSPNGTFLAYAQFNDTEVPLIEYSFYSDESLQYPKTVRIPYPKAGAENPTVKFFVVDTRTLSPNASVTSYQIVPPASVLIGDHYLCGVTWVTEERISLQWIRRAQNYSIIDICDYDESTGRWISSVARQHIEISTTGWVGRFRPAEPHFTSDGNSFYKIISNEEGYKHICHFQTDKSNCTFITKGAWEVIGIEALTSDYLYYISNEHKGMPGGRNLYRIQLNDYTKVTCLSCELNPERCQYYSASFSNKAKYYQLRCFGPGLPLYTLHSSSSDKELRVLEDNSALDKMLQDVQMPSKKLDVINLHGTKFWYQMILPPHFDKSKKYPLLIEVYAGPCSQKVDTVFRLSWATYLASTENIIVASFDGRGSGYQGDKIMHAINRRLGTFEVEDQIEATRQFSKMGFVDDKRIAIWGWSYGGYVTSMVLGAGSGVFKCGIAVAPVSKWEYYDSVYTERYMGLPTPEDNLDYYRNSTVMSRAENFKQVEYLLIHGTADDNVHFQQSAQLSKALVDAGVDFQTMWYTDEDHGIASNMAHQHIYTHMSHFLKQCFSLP
# Experimental: as §1
# ob/ob mice [2] = assay: Once daily i.p. injection for 14 days in ob/ob mice
# Experimental: (§2) Obese diabetic (ob/ob) mice derived from the colony maintained at Aston University, UK (23) were used at 12-16 weeks of age. […] Drinking water and standard rodent maintenance diet (Trouw Nutrition, Cheshire, UK) were freely available.
# (§3) Food intake and body weight were recorded daily from 5 days before commencement of the treatment regimes. Plasma glucose and insulin concentrations (10:00 h) were monitored at 2-4 day intervals. […] All acute tests were commenced at 10:00 h. […] Serum samples were taken for determination of glucagon concentrations. All other blood samples were collected from the cut tip of the tail vein of conscious mice into chilled fluoride/heparin coated glucose microcentrifuge tubes (Sarstedt, Nümbrecht, Germany) at the times indicated in the Figures. Blood samples were immediately centrifuged using a Beckman microcentrifuge (Beckman Instruments, Galway, Ireland) for 30 seconds at 13,000×g. The resulting plasma was then aliquoted into fresh tubes and stored at −20° C. prior to glucose and insulin determinations.
# DPP IV = settings: cited: O'Harte 2002; Irwin 2005; cited from earlier work
# ob/ob mice [3] = assay: Acute glucose lowering and insulin release, peptide given i.p. with glucose to 18 hour fasted ob/ob mice
# Experimental: as §2, §3
# ob/ob mice [4] = assay: 24 hour plasma glucose and insulin profile after a single dose in non-fasted ob/ob mice; format: in vivo
# Excerpt: Dose of 12.5 nmol kg^−1 was chosen to evaluate the longer-term duration of action of a single dose of native or fatty acid derivatised GIP in non-fasted ob/ob mice.
# ob/ob mice [5] = assay: Glucose tolerance 4 hours after peptide administration in 18 hour fasted ob/ob mice; format: in vivo; settings: 25 nmoles/kg, glucose 18 mmoles/kg
# [6] = after 14 daily injections, glucose 18 mmoles/kg
# [7] = after 14 days, glucose 18 mmoles/kg with native GIP
# [8] = 25 nmol/kg i.p. with glucose 18 mmol/kg
# Chain of dipeptidyl peptidase IV (P22411 whole entry): as above
smiles,measurement,setting,value
CCCCCCCCCCCCCCCC(=O)NCCCC[C@H](NC(=O)[C@H](Cc1c[nH]c2ccccc12)NC(=O)[C@H](CC(=O)O)NC(=O)[C@H](CC(N)=O)NC(=O)[C@H](CCCCN)NC(=O)[C@H](CCCCN)NC(=O)CNC(=O)[C@H](CCCCN)NC(=O)[C@H](CCC(N)=O)NC(=O)[C@H](C)NC(=O)[C@H](CC(C)C)NC(=O)[C@H](CC(C)C)NC(=O)[C@H](Cc1c[nH]c2ccccc12)NC(=O)[C@H](CC(N)=O)NC(=O)[C@@H](NC(=O)[C@H](Cc1ccccc1)NC(=O)[C@H](CC(=O)O)NC(=O)[C@H](CCC(N)=O)NC(=O)[C@H](CCC(N)=O)NC(=O)[C@H](Cc1c[nH]cn1)NC(=O)[C@@H](NC(=O)[C@H](CCCCN)NC(=O)[C@H](CC(=O)O)NC(=O)[C@H](CCSC)NC(=O)[C@H](C)NC(=O)[C@@H](NC(=O)[C@H](CO)NC(=O)[C@H](Cc1ccc(O)cc1)NC(=O)[C@H](CC(=O)O)NC(=O)[C@H](CO)NC(=O)[C@@H](NC(=O)[C@H](Cc1ccccc1)NC(=O)[C@@H](NC(=O)CNC(=O)[C@H](CCC(=O)O)NC(=O)[C@H](C)NC(=O)[C@@H](N)Cc1ccc(O)cc1)[C@@H](C)O)[C@@H](C)CC)[C@@H](C)CC)[C@@H](C)CC)C(C)C)C(=O)N[C@@H](Cc1c[nH]cn1)C(=O)N[C@@H](CC(N)=O)C(=O)N[C@H](C(=O)N[C@H](C(=O)N[C@@H](CCC(N)=O)C(=O)O)[C@@H](C)O)[C@@H](C)CC [GIP(LysPAL^37)],"remaining at 2 h, 2 mM","dipeptidyl peptidase IV; 2 h incubation with DPP IV (5 mU), read-out: % Intact peptide remaining after time (h) 2",100%
same,"remaining at 8 h, 2 mM","dipeptidyl peptidase IV; 8 h incubation with DPP IV (5 mU), read-out: % Intact peptide remaining after time (h) 8",100%
same,"remaining at 24 h, 2 mM","dipeptidyl peptidase IV; 24 h incubation with DPP IV (5 mU), read-out: % Intact peptide remaining after time (h) 24",100%
same,% Intact peptide remaining after time (h) 0,[1]; 0 h incubation with DPP IV (5 mU),100%
same,% Intact peptide remaining after time (h) 24,[1]; 24 h incubation with DPP IV (5 mU),remained fully intact
same,effect on body weight,"ob/ob mice [2]; 25 nmoles/kg/day, 14 days",no effect
same,effect on food intake,"ob/ob mice [2]; 25 nmoles/kg/day, 14 days",no effect
same,non-fasting plasma insulin concentrations (tendency towards elevated),"ob/ob mice [2]; 25 nmoles/kg/day, 14 days",did not achieve statistical significance
same,non-fasting plasma glucose concentrations at 14 days versus control,"ob/ob mice [2]; 25 nmoles/kg/day, day 14",significantly (p<0.05) lowered
same,plasma glucagon on day 14 versus control,"ob/ob mice [2]; 25 nmoles/kg/day, day 14",no differences observed
same,islet area compared with saline-treated ob/ob mice,ob/ob mice [2]; after 14 daily injections,significant increases
same,number of pancreatic islets compared with saline-treated ob/ob mice,ob/ob mice [2]; after 14 daily injections,significant increases
same,pancreatic insulin content compared with saline-treated controls,ob/ob mice [2]; after 14 daily injections,did not affect
same,pancreatic weight compared with saline-treated controls,ob/ob mice [2]; after 14 daily injections,did not affect
same,insulinotropic response following i.p. glucose versus control,ob/ob mice [2]; [6],augmented
same,overall glycaemic excursion after i.p. glucose versus control,ob/ob mice [2]; [6],significantly reduced
same,"plasma glucose response to 15 minutes feeding, at 15 minutes","ob/ob mice [2]; after 14 days, 18 hours fasted",significantly lowered
same,"plasma insulin response to 15 minutes feeding, at 15 minutes","ob/ob mice [2]; after 14 days, 18 hours fasted",significantly increased
same,overall insulinotropic response to feeding,"ob/ob mice [2]; after 14 days, 18 hours fasted, AUC 0-105 min",overall increased insulinotropic response
same,"hypoglycemic action of insulin (insulin sensitivity), AUC and post injection values versus controls","ob/ob mice [2]; after 14 days, insulin 50 U/kg i.p.",significantly augmented
same,glycaemic excursions after glucose with native GIP compared to control animals,ob/ob mice [2]; [7],significantly decreased
same,overall glucose-dependent insulinotropic response to native GIP,ob/ob mice [2]; [7],significantly augmented
same,adverse effects following long-term administration,ob/ob mice [2]; long-term administration,No adverse effects were observed
same,resistance to DPP IV degradation,DPP IV,increased resistance to DPP IV degradation
same,glucose AUC response compared to native GIP,ob/ob mice [3]; [8],significant reduction
same,plasma glucose concentrations and AUC (0-60 min) compared to glucose alone,ob/ob mice [3]; [8],significantly reduced
same,overall enhancement of insulin release over native GIP,"ob/ob mice [3]; 25 nmol/kg i.p. with glucose, insulin AUC 0-60 min",2.7 fold
same,effect on plasma glucose over 24 hours,ob/ob mice [4]; single 12.5 nmol/kg i.p.,significant (P<0.01) and sustained decrease
same,glucose concentrations at 24 hours and AUC values versus native GIP or saline treated controls,ob/ob mice [4]; single 12.5 nmol/kg i.p.,significantly less
same,insulin concentrations from 4 to 24 hours versus controls,ob/ob mice [4]; single 12.5 nmol/kg i.p.,not significantly different
same,time for which decline of plasma glucose was sustained after single injection,ob/ob mice [4]; single injection,at least 24 hours
same,insulinotropic properties 4 hours after administration,ob/ob mice [5],less evident
same,reduction of glycaemic excursion following i.p. glucose 4 hours after administration,ob/ob mice [5]; versus saline,18%
